Data published in patent EP4810052A2, “HCRHR2 SELECTIVE POLYPEPTIDES” (Gubra A/S, priority 2023, dated 2026).
Like-named read-outs stand apart in the source and are kept apart here. Starred links: 1 amine or outer side, 2 acyl side, 3 side chain; linkers in the order of their positions; H or OH if unused. Non-standard residues stand in square brackets, D forms with d. Residues, ends and D or L forms follow the SMILES beside them. Groups on a side chain read outwards from the residue. *: point of attachment. C20 diacid = O=C(O)CCCCCCCCCCCCCCCCCCC(=O)*; γGlu = O=C(O)[C@H](CCC(=O)[*:2])N[*:1]; NMeI = CC[C@H](C)[C@H](NC)C(=O)O; Nle = CCCC[C@H](N)C(=O)O; AEEA = NCCOCCOCC(=O)O; Aib = CC(C)(N)C(=O)O

Tests used:
hCRHR2 = molecular target: T1, hCRHR2 (Homo sapiens, UniProt Q13324); assay: HTRF cAMP assay, determination of hCRHR2 potency (peptide libraries 5 conc., purified peptides 11 conc.); format: cell-based
T1 sequence (Q13324 1-411): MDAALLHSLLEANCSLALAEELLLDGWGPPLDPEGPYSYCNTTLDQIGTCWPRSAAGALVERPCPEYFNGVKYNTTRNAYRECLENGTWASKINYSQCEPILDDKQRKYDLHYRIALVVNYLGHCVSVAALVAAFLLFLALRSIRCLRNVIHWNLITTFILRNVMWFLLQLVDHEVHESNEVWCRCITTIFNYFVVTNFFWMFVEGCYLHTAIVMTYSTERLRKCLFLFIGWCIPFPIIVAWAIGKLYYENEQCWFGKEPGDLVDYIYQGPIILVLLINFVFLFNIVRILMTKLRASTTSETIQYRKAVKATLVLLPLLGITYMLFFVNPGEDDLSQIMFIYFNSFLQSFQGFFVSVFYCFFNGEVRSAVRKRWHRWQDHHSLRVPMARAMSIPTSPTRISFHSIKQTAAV
In short: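 CHO-K1 cells stably expressing human CRHR2, thawed from frozen stocks just before use and run in suspension; cAMP measured by competitive HTRF immunoassay (cryptate anti-cAMP, d2-cAMP). Agonist peptides tested at 5 (libraries) or 11 (purified) concentrations; EC50 from sigmoid variable-slope nonlinear regression.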

hCRHR1 = molecular target: T2, hCRHR1 (Homo sapiens, UniProt P34998); assay: HTRF cAMP assay, determination of hCRHR1 potency (peptide libraries 5 conc., purified peptides 11 conc.); format: cell-based
T2 sequence (P34998 24-415): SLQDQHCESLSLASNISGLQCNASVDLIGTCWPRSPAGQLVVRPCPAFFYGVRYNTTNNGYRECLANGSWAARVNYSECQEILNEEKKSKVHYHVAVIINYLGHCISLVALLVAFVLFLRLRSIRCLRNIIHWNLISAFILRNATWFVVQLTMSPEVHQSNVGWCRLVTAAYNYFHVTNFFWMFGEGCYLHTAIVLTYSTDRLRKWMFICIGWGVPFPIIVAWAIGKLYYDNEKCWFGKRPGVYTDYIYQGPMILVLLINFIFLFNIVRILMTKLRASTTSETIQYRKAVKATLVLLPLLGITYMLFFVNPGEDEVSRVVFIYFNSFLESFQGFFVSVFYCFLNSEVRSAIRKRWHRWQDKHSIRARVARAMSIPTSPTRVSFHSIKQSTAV
In short: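 CHO-K1 cells stably expressing human CRHR1, thawed from frozen stocks just before use, were stimulated in suspension with agonist peptides. cAMP was measured by HTRF competitive immunoassay (cryptate anti-cAMP antibody vs d2-cAMP).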

[1] = library peptides, matched molecular pairs L vs Nle in position X^38, read-out: Potency hCRHR2 pEC50 (converted)
[2] = library peptides, matched molecular pairs L vs Nle in position X^38, read-out: Potency hCRHR1 pEC50 (converted)
[3] = Table 4, library peptides having X^38 = Nle, read-out: hCRHR2 pEC50 (converted)
[4] = Table 4, library peptides having X^38 = Nle, read-out: hCRHR1 pEC50 (converted)

Row | SMILES | EC50 (hCRHR2; [1]) | EC50 (hCRHR1; [2]) | EC50 (hCRHR2; [3]) | EC50 (hCRHR1; [4]) | other results
1 | CC[C@H](C)[C@H](N)C(=O)N[C@H](C(=O)N[C@@H](CC(C)C)C(=O)N[C@@H](CO)C(=O)N[C@@H](CC(C)C)C(=O)N[C@@H](CC(=O)O)C(=O)N[C@H](C(=O)N1CCC[C@H]1C(=O)N[C@H](C(=O)NCC(=O)N[C@@H](CC(C)C)C(=O)N[C@@H](CC(C)C)C(=O)N[C@@H](CCC(N)=O)C(=O)N[C@H](C(=O)N[C@@H](CC(C)C)C(=O)N[C@@H](CC(C)C)C(=O)N[C@@H](CO)C(=O)N[C@@H](CCC(N)=O)C(=O)N[C@@H](C)C(=O)N[C@@H](CCCNC(=N)N)C(=O)N[C@@H](C)C(=O)N[C@@H](CCCNC(=N)N)C(=O)N[C@@H](C)C(=O)N[C@@H](C)C(=O)N[C@@H](CCCNC(=N)N)C(=O)N[C@@H](CCC(=O)O)C(=O)N[C@@H](CCC(N)=O)C(=O)N[C@@H](C)C(=O)N[C@@H](CCCCNC(=O)COCCOCCNC(=O)COCCOCCNC(=O)CC[C@H](NC(=O)CC[C@H](NC(=O)CCCCCCCCCCCCCCCCCCC(=O)O)C(=O)O)C(=O)O)C(=O)N[C@H](C(=O)N[C@@H](CC(N)=O)C(=O)N[C@@H](C)C(=O)N[C@@H](CCC(=O)O)C(=O)N[C@H](C(=O)N[C@@H](CC(C)C)C(=O)N[C@@H](C)C(=O)N[C@@H](CCC(=O)O)C(=O)N[C@H](C(N)=O)[C@@H](C)CC)[C@@H](C)CC)[C@@H](C)O)[C@@H](C)CC)[C@@H](C)CC)C(C)C)C(C)C [compound 88] (H-IVLSLDVPIGLLQILLSQARARAAREQAK([AEEA-AEEA-γGlu-γGlu-C20 diacid])TNAEILAEI-NH2) | 0.631 nM | 39800 nM | – | – | –
2 | CC[C@H](C)[C@H](N)C(=O)N[C@H](C(=O)N[C@@H](CC(C)C)C(=O)N[C@@H](CO)C(=O)N[C@@H](CC(C)C)C(=O)N[C@@H](CC(=O)O)C(=O)N[C@H](C(=O)N1CCC[C@H]1C(=O)N[C@H](C(=O)NCC(=O)N[C@@H](CC(C)C)C(=O)N[C@@H](CC(C)C)C(=O)N[C@@H](CCC(N)=O)C(=O)N[C@H](C(=O)N[C@@H](CC(C)C)C(=O)N[C@@H](CC(C)C)C(=O)N[C@@H](CO)C(=O)N[C@@H](CCC(N)=O)C(=O)N[C@@H](C)C(=O)N[C@@H](CCCNC(=N)N)C(=O)N[C@@H](C)C(=O)N[C@@H](CCCNC(=N)N)C(=O)N[C@@H](C)C(=O)N[C@@H](C)C(=O)N[C@@H](CCCNC(=N)N)C(=O)N[C@@H](CCC(=O)O)C(=O)N[C@@H](CCC(N)=O)C(=O)N[C@@H](C)C(=O)N[C@@H](CCCCNC(=O)COCCOCCNC(=O)COCCOCCNC(=O)CC[C@H](NC(=O)CC[C@H](NC(=O)CCCCCCCCCCCCCCCCCCC(=O)O)C(=O)O)C(=O)O)C(=O)N[C@H](C(=O)N[C@@H](CC(N)=O)C(=O)N[C@@H](C)C(=O)N[C@@H](CCC(=O)O)C(=O)N[C@H](C(=O)N[C@@H](CC(C)C)C(=O)N[C@@H](C)C(=O)N[C@@H](CCC(=O)O)C(=O)N[C@H](C(N)=O)C(C)C)[C@@H](C)CC)[C@@H](C)O)[C@@H](C)CC)[C@@H](C)CC)C(C)C)C(C)C [compound 82] (H-IVLSLDVPIGLLQILLSQARARAAREQAK([AEEA-AEEA-γGlu-γGlu-C20 diacid])TNAEILAEV-NH2) | 0.631 nM | 158000 nM | – | – | –
3 | CCCC[C@H](NC(=O)[C@@H](NC(=O)[C@H](CCC(=O)O)NC(=O)[C@H](C)NC(=O)[C@H](CC(N)=O)NC(=O)[C@@H](NC(=O)[C@H](CCCCNC(=O)COCCOCCNC(=O)COCCOCCNC(=O)CC[C@H](NC(=O)CC[C@H](NC(=O)CCCCCCCCCCCCCCCCCCC(=O)O)C(=O)O)C(=O)O)NC(=O)[C@H](C)NC(=O)[C@H](CCC(N)=O)NC(=O)[C@H](CCC(=O)O)NC(=O)[C@H](CCCNC(=N)N)NC(=O)[C@H](C)NC(=O)[C@H](CO)NC(=O)[C@H](CCCNC(=N)N)NC(=O)[C@H](C)NC(=O)[C@H](CCCNC(=N)N)NC(=O)[C@H](C)NC(=O)[C@H](CCC(N)=O)NC(=O)[C@H](CCC(=O)O)NC(=O)[C@H](CC(C)C)NC(=O)[C@H](CC(C)C)NC(=O)[C@@H](NC(=O)[C@H](CCC(N)=O)NC(=O)[C@H](CC(C)C)NC(=O)[C@H](CC(C)C)NC(=O)CNC(=O)[C@@H](NC(=O)[C@@H]1CCCN1C(=O)[C@@H](NC(=O)[C@H](CC(=O)O)NC(=O)[C@H](CC(C)C)NC(=O)[C@H](CO)NC(=O)[C@H](CC(C)C)NC(=O)[C@@H](NC(=O)[C@@H](N)[C@@H](C)CC)C(C)C)C(C)C)[C@@H](C)CC)[C@@H](C)CC)[C@@H](C)O)[C@@H](C)CC)C(=O)N[C@@H](C)C(=O)N[C@@H](CCC(=O)O)C(=O)N[C@H](C(N)=O)[C@@H](C)CC [SEQ ID NO: 36] (H-IVLSLDVPIGLLQILLEQARARSAREQAK([AEEA-AEEA-γGlu-γGlu-C20 diacid])TNAEI[Nle]AEI-NH2) | – | – | – | – | EC50 (hCRHR2; Table 3, matched molecular pairs X^38 L vs Nle, peptide library of Example 4, read-out: hCRHR2 pEC50 (converted)): 0.158 nM; EC50 (hCRHR1; Table 3, matched molecular pairs X^38 L vs Nle, peptide library of Example 4, read-out: hCRHR1 pEC50 (converted)): 5010 nM

Second part, led by results:

Row | EC50 (hCRHR2; [1]) | EC50 (hCRHR1; [2]) | EC50 (hCRHR2; [3]) | EC50 (hCRHR1; [4]) | SMILES | other results
4 | – | – | 0.02 nM | 1000 nM | CCCC[C@H](NC(=O)[C@@H](NC(=O)[C@H](CCC(=O)O)NC(=O)[C@H](C)NC(=O)[C@H](CC(N)=O)NC(=O)C(C)(C)NC(=O)[C@H](CCCCNC(=O)COCCOCCNC(=O)COCCOCCNC(=O)CC[C@H](NC(=O)CC[C@H](NC(=O)CCCCCCCCCCCCCCCCCCC(=O)O)C(=O)O)C(=O)O)NC(=O)[C@H](C)NC(=O)[C@H](CCC(N)=O)NC(=O)[C@H](CCC(=O)O)NC(=O)[C@H](CCCNC(=N)N)NC(=O)[C@H](C)NC(=O)[C@H](C)NC(=O)[C@H](CCCNC(=N)N)NC(=O)[C@H](C)NC(=O)[C@H](CCCNC(=N)N)NC(=O)[C@H](C)NC(=O)[C@H](CCC(N)=O)NC(=O)[C@H](C)NC(=O)[C@H](CC(C)C)NC(=O)[C@H](CC(C)C)NC(=O)[C@@H](NC(=O)[C@H](CCC(N)=O)NC(=O)[C@H](CC(C)C)NC(=O)[C@H](CC(C)C)NC(=O)CNC(=O)[C@@H](NC(=O)[C@@H]1CCCN1C(=O)[C@@H](NC(=O)[C@H](CC(=O)O)NC(=O)[C@H](CC(C)C)NC(=O)[C@H](CO)NC(=O)[C@H](CC(C)C)NC(=O)[C@@H](NC(=O)[C@@H](NC)[C@@H](C)CC)C(C)C)C(C)C)[C@@H](C)CC)[C@@H](C)CC)[C@@H](C)CC)C(=O)N[C@@H](C)C(=O)N[C@@H](CCC(=O)O)C(=O)N[C@H](C(N)=O)C(C)C [compound 119] (H-[NMeI]VLSLDVPIGLLQILLAQARARAAREQAK([AEEA-AEEA-γGlu-γGlu-C20 diacid])[Aib]NAEI[Nle]AEV-NH2) | –
5 | – | – | 0.0251 nM | 79400 nM | CCCC[C@H](NC(=O)[C@@H](NC(=O)[C@H](CCC(=O)O)NC(=O)C(C)(C)NC(=O)[C@H](CC(N)=O)NC(=O)[C@@H](NC(=O)[C@H](CCCCNC(=O)COCCOCCNC(=O)COCCOCCNC(=O)CC[C@H](NC(=O)CC[C@H](NC(=O)CCCCCCCCCCCCCCCCCCC(=O)O)C(=O)O)C(=O)O)NC(=O)[C@H](C)NC(=O)[C@H](CCC(N)=O)NC(=O)[C@H](CCC(=O)O)NC(=O)[C@H](CCCNC(=N)N)NC(=O)[C@H](C)NC(=O)[C@H](C)NC(=O)[C@H](CCCNC(=N)N)NC(=O)[C@H](C)NC(=O)[C@H](CCCNC(=N)N)NC(=O)[C@H](C)NC(=O)[C@H](CCC(N)=O)NC(=O)[C@H](Cc1ccccc1)NC(=O)[C@H](CC(C)C)NC(=O)[C@H](CC(C)C)NC(=O)[C@@H](NC(=O)[C@H](CCC(N)=O)NC(=O)[C@H](CC(C)C)NC(=O)[C@H](CC(C)C)NC(=O)CNC(=O)[C@@H](NC(=O)[C@@H]1CCCN1C(=O)[C@@H](NC(=O)[C@H](CC(=O)O)NC(=O)[C@H](CC(C)C)NC(=O)[C@H](CO)NC(=O)[C@H](CC(C)C)NC(=O)[C@@H](NC(=O)[C@@H](NC)[C@@H](C)CC)C(C)C)C(C)C)[C@@H](C)CC)[C@@H](C)CC)[C@@H](C)O)[C@@H](C)CC)C(=O)N[C@@H](C)C(=O)N[C@@H](CCC(=O)O)C(=O)N[C@H](C(N)=O)C(C)C [compound 211] (H-[NMeI]VLSLDVPIGLLQILLFQARARAAREQAK([AEEA-AEEA-γGlu-γGlu-C20 diacid])TN[Aib]EI[Nle]AEV-NH2) | –
